Results taken from ChEMBL document CHEMBL1132896, “Beta-casomorphins: substitution of phenylalanine with beta-homo phenylalanine increases the mu-type opioid receptor affinity” (Bioorg Med Chem Lett, 2000).
Non-standard residues stand in square brackets, D forms with d. Residues, ends and D or L forms follow the SMILES beside them. β3hF = N[C@H](CC(=O)O)Cc1ccccc1

Assays:
Mu-type opioid receptor [1] = target: T1, Mu-type opioid receptor (Rattus norvegicus, UniProt P33535); experiment: Compound was evaluated for the binding affinity of Opioid receptor mu 1 by displacing the radioligand [3H]DAMGO from rat brain membrane
Mu-type opioid receptor [2] = target: T1, Mu-type opioid receptor; experiment: Inhibitory concentration against [3H]DAMGO binding to Opioid receptor mu 1 in rat brain membrane; assay type: cell membranes

T1 sequence (P33535 whole entry): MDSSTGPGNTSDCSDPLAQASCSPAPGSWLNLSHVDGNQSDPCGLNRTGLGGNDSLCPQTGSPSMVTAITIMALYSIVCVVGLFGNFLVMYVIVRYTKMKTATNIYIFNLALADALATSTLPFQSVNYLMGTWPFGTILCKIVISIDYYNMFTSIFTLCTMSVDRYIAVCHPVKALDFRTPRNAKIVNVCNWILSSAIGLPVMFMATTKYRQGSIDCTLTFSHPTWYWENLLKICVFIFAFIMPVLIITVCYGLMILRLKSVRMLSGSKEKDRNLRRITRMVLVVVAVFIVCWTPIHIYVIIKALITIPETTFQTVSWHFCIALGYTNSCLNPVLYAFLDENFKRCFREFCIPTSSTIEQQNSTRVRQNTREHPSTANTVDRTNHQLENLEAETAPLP

## N[C@@H](Cc1ccc(O)cc1)C(=O)N1CCC[C@H]1C(=O)N[C@@H](Cc1ccccc1)C(=O)N1CCC[C@H]1C(=O)NCC(=O)O (H-YPFPG-OH)
Mu-type opioid receptor [1]
  Ki: 1.62 µM
Mu-type opioid receptor [2]
  IC50: 4.5 µM

## CC[C@H](C)[C@H](NC(=O)[C@@H]1CCCN1C(=O)CNC(=O)[C@@H]1CCCN1C(=O)[C@H](Cc1ccccc1)NC(=O)[C@@H]1CCCN1C(=O)[C@@H](N)Cc1ccc(O)cc1)C(=O)O (H-YPFPGPI-OH)
Mu-type opioid receptor [1]
  Ki: 7.54 µM
Mu-type opioid receptor [2]
  IC50: 20 µM

## N[C@@H](Cc1ccc(O)cc1)C(=O)N1CCC[C@H]1C(=O)N[C@H](CC(=O)N1CCC[C@H]1C(=O)NCC(=O)O)Cc1ccccc1 (H-YP[β3hF]PG-OH)
Mu-type opioid receptor [1]
  Ki: 0.72 µM
Mu-type opioid receptor [2]
  IC50: 2 µM

## CC[C@H](C)[C@H](NC(=O)[C@@H]1CCCN1C(=O)CNC(=O)[C@@H]1CCCN1C(=O)C[C@H](Cc1ccccc1)NC(=O)[C@@H]1CCCN1C(=O)[C@@H](N)Cc1ccc(O)cc1)C(=O)O (H-YP[β3hF]PGPI-OH)
Mu-type opioid receptor [1]
  Ki: 1.44 µM
Mu-type opioid receptor [2]
  IC50: 4 µM
